Here are results for five compounds from patent US20260206762A1, “PYRIMIDINONE DERIVATIVES AS PESTICIDAL COMPOUNDS” (BASF SE, priority 2022, published 2026).

For assay [1], the system named is diamond back moth (Plutella xylostella). As to the kind of experiment: Diamond back moth (Plutella xylostella) cabbage leaf disc dip test. In kind it is in vivo. The conditions noted are these: for Test according to B.4 (Plutella xylostella) @ 10 ppm: comparison data; for mortality at 800 ppm: Plutella xylostella, foliar, 3rd instar larvae, 72 hours after treatment, read-out: mortality in comparison with untreated controls. The method, then: B.4 Diamond Back Moth (Plutella xylostella)
The active compound is dissolved at the desired concentration in a mixture of 1:1 (vol:vol) distilled water: acetone. Surfactant (Kinetic) is added at a rate of 0.01% (vol/vol). The test solution is prepared at the day of use. Cabbage leaf discs (60 mm in diameter) are dipped in test solution and air-dried. Treated leaves are placed in petri dishes lined with moistened filter paper and inoculated with ten 3rd instar larvae. Mortality is recorded 72 hours after treatment. Feeding damage is also recorded using a scale of 0-100%.

Assay [2] deals with tobacco budworm (Heliothis virescens). As to the kind of experiment: Tobacco budworm (Heliothis virescens) microtiter diet test, egg and larval mortality. In kind it is in vivo. As to conditions: 120 h, egg and larval mortality after 5 days, read-out: mortality in comparison with untreated controls. Here is the method:
B.2 Tobacco Budworm (Heliothis virescens)
For evaluating control of tobacco budworm (Heliothis virescens) the test unit consisted of 96-well-microtiter plates containing an insect diet and 15-25 H. virescens eggs. The compounds were formulated using a solution containing 75% v/v water and 25% v/v DMSO. Different concentrations of formulated compounds were sprayed onto the insect diet at 10 μl, using a custom-built micro atomizer, at two replications. After application, microtiter plates were incubated at about 28±1° C. and about 80±5% relative humidity for 5 days. Egg and larval mortality was then visually assessed.

Assay [3] concerns green peach aphid (Myzus persicae). As to the kind of experiment: Green peach aphid (Myzus persicae) systemic artificial diet test. In kind it is in vivo. The conditions noted are these: 72 h, aphid mortality after 3 days, read-out: mortality in comparison with untreated controls. From the text: B.3 Green Peach Aphid (Myzus persicae)
For evaluating control of green peach aphid (Myzus persicae) through systemic means the test unit consisted of 96-well-microtiter plates containing liquid artificial diet under an artificial membrane. The compounds were formulated using a solution containing 75% v/v water and 25% v/v DMSO. Different concentrations of formulated compounds were pipetted into the aphid diet, using a custom built pipetter, at two replications. After application, 5-8 adult aphids were placed on the artificial membrane inside the microtiter plate wells. The aphids were then allowed to suck on the treated aphid diet and incubated at about 23±1° C. and about 50±5% relative humidity for 3 days. Aphid mortality and fecundity was then visually assessed.

In assay [4] the test system is boll weevil (Anthonomus grandis). The assay is described as follows: Boll weevil (Anthonomus grandis) microtiter diet test, egg and larval mortality. The conditions noted are these: 120 h, egg and larval mortality after 5 days, read-out: mortality in comparison with untreated controls. In kind it is in vivo. The method, then: B.1 Boll Weevil (Anthonomus grandis)
For evaluating control of boll weevil (Anthonomus grandis) the test unit consisted of 96-well-microtiter plates containing an insect diet and 5-10 A. grandis eggs. The compounds were formulated using a solution containing 75% v/v water and 25% v/v DMSO. Different concentrations of formulated compounds were sprayed onto the insect diet at 5 μl, using a custom-built micro atomizer, at two replications. After application, microtiter plates were incubated at about 25±1° C. and about 75±5% relative humidity for 5 days. Egg and larval mortality was then visually assessed.

For assay [5], the system named is southern armyworm (Spodoptera eridania), 2nd instar larvae. The assay is described as follows: whole plant or invertebrate. The conditions noted are these: in Phaseolus lunatus, foliar, 96 h, read-out: mortality in comparison with untreated controls. Here is the method: B.5 Southern Armyworm (Spodoptera eridania), 2nd Instar Larvae
The 10,000 ppm solution was serially diluted in 100% cyclohexanone to make interim solutions. These served as stock solutions for which final dilutions were made by the Tecan in 50% acetone:50% water (v/v) into 10 or 20 ml glass vials. A nonionic surfactant (Kinetic®) was included in the solution at a volume of 0.01% (v/v). The vials were then inserted into an automated electrostatic sprayer equipped with an atomizing nozzle for application to plants/insects. Lima bean plants (variety Sieva) were grown 2 plants to a pot and selected for treatment at the 1st true leaf stage. Test solutions were sprayed onto the foliage by an automated electrostatic plant sprayer equipped with an atomizing spray nozzle. The plants were dried in the sprayer fume hood and then removed from the sprayer. Each pot was placed into perforated plastic bags with a zip closure. Ten to 11 armyworm larvae were placed into the bag and the bags zipped closed. Test plants were maintained in a growth room at about 25° C. and about 20-40% relative humidity for 4 days, avoiding direct exposure to fluorescent light (14:10 light:dark photoperiod) to prevent trapping of heat inside the bags. Mortality and reduced feeding were assessed 4 days after treatment, compared to untreated control plants.

SMILES strings stand for the structures. Some results are limits rather than exact numbers.

As for `CCS(=O)(=O)c1cc(C(C)(C)C#N)cnc1-c1cn2c(=O)n(C3CC3)c(C(F)(F)F)cc2n1` [Compound C.4, reference compound], the “Test according to B.4 (Plutella xylostella) @ 10 ppm” value in assay [1] came out at 25%.

A word on the mortality: it is the share of the test organisms that died. With `CCS(=O)(=O)c1cc(-c2ccc(F)cc2)cnc1-c1cn2c(=O)n(C3CC3)c(Cl)cc2n1` [I.1, 7-chloro-6-cyclopropyl-2-[3-ethylsulfonyl-5-(4-fluorophenyl)-2-pyridyl]imidazo[1,2-c]pyrimidin-5-one], the mortality at 800 ppm in assay [2], in assay [3], in assay [1] and in assay [4] was over 75% each time. In addition, the mortality at 300 ppm in assay [5] was over 75%.

As for `CCS(=O)(=O)c1cc(C(C)(C)C#N)cnc1-c1cn2c(=O)n(C3CC3)c(Cl)cc2n1` [I.3], the mortality at 800 ppm in assay [3], in assay [1] and in assay [4] was over 75% throughout. For the same compound, the “Test according to B.4 (Plutella xylostella) @ 10 ppm” value in assay [1] is 100%. For the same compound, in assay [5], the mortality at 300 ppm is over 75%.

On to `CCS(=O)(=O)c1cc(-c2ccc(F)cc2)cnc1-c1cn2c(=O)n(C3CC3)c(Br)cc2n1` [I.4, 7-bromo-6-cyclopropyl-2-[3-ethylsulfonyl-5-(4-fluorophenyl)-2-pyridyl]imidazo[1,2-c]pyrimidin-5-one], for which the mortality at 800 ppm in assay [2], in assay [3], in assay [1] and in assay [4] was over 75% each time. The mortality at 300 ppm in assay [5] is over 75%.

Take `CCS(=O)(=O)c1cc(-c2ccc(F)cc2)c(C)nc1-c1cn2c(=O)n(C3CC3)c(Cl)cc2n1` [I.5, 7-chloro-6-cyclopropyl-2-[3-ethylsulfonyl-5-(4-fluorophenyl)-6-methyl-2-pyridyl]imidazo[1,2-c]pyrimidin-5-one]: the mortality at 800 ppm in assay [2], in assay [3], in assay [1] and in assay [4] was over 75% in each case. In addition, in assay [5], the mortality at 300 ppm is over 75%.
